Assay results from ChEMBL document CHEMBL1144835, “Bioactive metabolites from the South African marine mollusk Trimusculus costatus” (J Nat Prod, 2008).

experiment: Cytotoxicity against human WHCO1 cells after 24 hrs by MTT assay; assay type: functional, cell-based; settings: WHCO1, 24 h

| SMILES | IC50 [µM] |
| --- | --- |
| CC(=O)O[C@H]1CC(C)(C)[C@@H]2[C@H](OC(C)=O)[C@@H](OC(C)=O)C(C)=C(CC/C(C)=C/CO)[C@@]2(C)C1 | 24 |
| CC(=O)OC/C=C(\C)CCC1=C(C)[C@H](OC(C)=O)[C@@H](OC(C)=O)[C@H]2C(C)(C)CCC[C@]12C | 84 |
| CC(=O)O[C@@H]1[C@@H](OC(C)=O)C(C)=C(CC/C(C)=C/CO)[C@@]2(C)CCCC(C)(C)[C@H]12 | 25 |
| CC(C)CCC[C@@H](C)[C@H]1CC[C@@H](C2=CC(=O)C3=C[C@H](O)CC[C@]3(C)C2=O)[C@]1(C)CCO | 3 |
